In patent US10035814B2, “Guanine analogs as telomerase substrates and telomere length affectors” (Geron Corporation, priority 2011, dated 2018):
Values joined by “and” are separate entries in the source; they are usually repeats but may differ in a detail not shown here. Equal entries are not always repeated.

How the values were obtained:
Caki-1 cells = assay: Caki-1 tumor growth in SCID hairless outbred (SHO) mice; format: in vivo; conditions: for tumor growth compared to vehicle control: 30 mg/kg intraperitoneal; for Intercept coefficient of linear transformed tumor growth curve / Slope coefficient of linear transformed tumor growth curve: linear mixed effects model, change versus vehicle
Experimental: Low-passage Caki-1 cells were injected subcutaneously into the flank of SCID hairless outbred (SHO) mice receiving 30 mg/kg of one of the following via intraperitoneal injection: vehicle (PBS with 0.4% Tween 20), Imetelstat (163 L), PMPG free acid (ID#142693), or PMPG prodrug (ID#142715). Calipers were used to measure tumor length and width bi-weekly, and tumor volume was calculated. Once a tumor had grown >50 mm^3, the animal was randomly entered into a study group, either control or treatment. Animals received 30 mg/kg compound via intraperitoneal injection for the duration of the study. The control vehicle was PBS with 0.4% Tween 20. Tumor volume was measured bi-weekly, and animals were sacrificed either when tumor size was >2000 mm^3 or at defined study completion date.
At the conclusion of the study, a linear transformation of the tumor growth curves was performed. The slope of the growth curves for each treatment group was derived by using a linear mixed effects model. The Y-intercept was used to confirm random tumor starting size at the time of animals entering into the study.

A549 cells = assay: Telomere repeat fragment (TRF) assay using A549 cells; format: cell-based; conditions: approximately 70 population doublings
Experimental: (§1) Approximately 1-2 μg of genomic DNA from each cell line or tissue was digested by Hinf/RsaI for 2 hours at 37° C. Following DNA digestion, the genomic DNA fragments were separated on a 0.8% agarose gel and transferred to a nylon membrane by blotting. All membrane hybridization and detection reagents were provided in the TeloTAGGG Telomere Length Assay kit (Roche Diagnostics, Mannheim Germany). The blotted membranes were hybridized with digoxigenin (DIG)-labeled PNA probe specific for telomeric repeats, followed by incubation with anti-DIG-antibody-alkaline phosphatase according to the manufacturer's instructions. Alkaline phosphatase was quantified using the chemiluminescent substrate. Telomere lengths were calculated according to the manufacturer's instruction.
Lane 1 is a ladder from 21.2 kb to 1.9 kb. Lanes 2 and 3 have 10 μM and 5 μM, respectively, of PMPG free acid (ID#142693). Lanes 4 to 6 have 10 μM, 5 μM, and 2.5 μM, respectively, of PMPG prodrug (ID#142715). Lane 7 has 2 μM of Imetelstat (163 L). Lane 8 has 2 μM of a mismatch. Lanes 9 and 10 have 20 μM and 10 μM, respectively, of PMIBeG free acid [(((2-((2-amino-6-oxo-1H-purin-9(6H)-yl)methyl)allyl)oxy)methyl)phosphonic acid] (ID#142811). Indicated amounts each compound were added to A549 cells. After approximately 70 population doublings, the cells were harvested and telomere lengths determined using TRF. The estimated average telomere lengths were: (1) MM/mismatch control: 7 kb; (2) Imetelstat/163 L: 4.3 kb; (3) PMPG prodrug (10 μM and 5 μM): 4 kb; (4) PMPG free acid (5 μM and 10 μM): 4 kb; (5) PMIBeG prodrug (50 μM): 4.3 kb; (6) PMIBeG free acid (20 μM): 5 kb.

[1] = Cytotoxicity in cell culture (cells not named); format: cell-based
telomerase in HT3 cells = telomerase in HT3 cells (Homo sapiens (Human), UniProt O14746); assay: Ex vivo TRAP assay in HT3 cells; format: cell-based; conditions: Table 8, assay not given; repeat determinations, values coincide with Ex Vivo TRAP; read-out: EC50
telomerase in HT3 cells, sequence (O14746 whole entry): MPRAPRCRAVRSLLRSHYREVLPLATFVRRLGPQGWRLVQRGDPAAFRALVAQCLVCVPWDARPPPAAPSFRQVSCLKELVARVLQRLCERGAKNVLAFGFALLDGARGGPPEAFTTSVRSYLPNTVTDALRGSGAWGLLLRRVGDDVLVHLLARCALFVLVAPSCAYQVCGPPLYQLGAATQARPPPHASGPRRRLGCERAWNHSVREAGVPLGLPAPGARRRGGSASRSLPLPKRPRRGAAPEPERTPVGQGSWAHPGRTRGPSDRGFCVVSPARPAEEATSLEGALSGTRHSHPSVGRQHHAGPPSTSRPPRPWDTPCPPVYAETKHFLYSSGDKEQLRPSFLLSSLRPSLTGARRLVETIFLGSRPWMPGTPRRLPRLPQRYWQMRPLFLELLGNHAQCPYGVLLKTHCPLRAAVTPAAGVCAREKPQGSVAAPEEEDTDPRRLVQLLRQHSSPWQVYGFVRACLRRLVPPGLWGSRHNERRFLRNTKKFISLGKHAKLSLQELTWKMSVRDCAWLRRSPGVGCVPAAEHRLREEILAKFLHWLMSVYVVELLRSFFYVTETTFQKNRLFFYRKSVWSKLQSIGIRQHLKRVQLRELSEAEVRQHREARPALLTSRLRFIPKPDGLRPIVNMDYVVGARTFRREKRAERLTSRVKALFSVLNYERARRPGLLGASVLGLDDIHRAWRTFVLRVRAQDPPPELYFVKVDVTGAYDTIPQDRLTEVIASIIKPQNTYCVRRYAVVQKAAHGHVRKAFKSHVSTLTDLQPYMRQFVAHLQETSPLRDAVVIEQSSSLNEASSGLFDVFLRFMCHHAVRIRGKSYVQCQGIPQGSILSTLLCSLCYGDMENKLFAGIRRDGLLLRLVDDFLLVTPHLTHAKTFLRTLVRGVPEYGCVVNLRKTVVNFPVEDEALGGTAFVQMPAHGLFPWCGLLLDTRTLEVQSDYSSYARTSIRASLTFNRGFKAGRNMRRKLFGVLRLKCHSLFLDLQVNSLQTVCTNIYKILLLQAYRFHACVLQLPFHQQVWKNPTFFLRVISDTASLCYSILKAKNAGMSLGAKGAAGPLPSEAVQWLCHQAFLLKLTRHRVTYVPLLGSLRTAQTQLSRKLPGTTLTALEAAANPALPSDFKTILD
telomerase in HT3 cells, sequence (O60832 whole entry partner): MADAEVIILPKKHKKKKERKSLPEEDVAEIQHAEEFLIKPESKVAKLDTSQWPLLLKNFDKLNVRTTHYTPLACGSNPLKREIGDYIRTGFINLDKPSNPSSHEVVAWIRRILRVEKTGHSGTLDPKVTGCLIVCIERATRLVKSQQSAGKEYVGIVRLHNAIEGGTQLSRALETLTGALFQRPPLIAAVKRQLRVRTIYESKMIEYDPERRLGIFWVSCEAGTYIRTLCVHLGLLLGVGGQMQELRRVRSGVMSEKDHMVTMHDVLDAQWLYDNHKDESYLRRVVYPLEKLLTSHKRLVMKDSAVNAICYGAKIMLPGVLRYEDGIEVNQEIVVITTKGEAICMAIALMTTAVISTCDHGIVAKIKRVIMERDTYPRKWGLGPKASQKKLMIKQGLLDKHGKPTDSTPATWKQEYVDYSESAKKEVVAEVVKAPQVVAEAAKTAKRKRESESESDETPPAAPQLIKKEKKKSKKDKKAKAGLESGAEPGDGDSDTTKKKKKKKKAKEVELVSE
telomerase in HT3 cells, sequence (Q9NX24 whole entry partner): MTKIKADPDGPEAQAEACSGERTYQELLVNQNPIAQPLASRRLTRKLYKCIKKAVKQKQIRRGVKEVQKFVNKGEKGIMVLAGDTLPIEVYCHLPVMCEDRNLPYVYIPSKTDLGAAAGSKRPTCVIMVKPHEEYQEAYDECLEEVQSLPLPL
telomerase in HT3 cells, sequence (Q9NPE3 whole entry partner): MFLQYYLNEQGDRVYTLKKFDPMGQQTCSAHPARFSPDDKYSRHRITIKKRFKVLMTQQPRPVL
telomerase in HT3 cells, sequence (Q9NY12 whole entry partner): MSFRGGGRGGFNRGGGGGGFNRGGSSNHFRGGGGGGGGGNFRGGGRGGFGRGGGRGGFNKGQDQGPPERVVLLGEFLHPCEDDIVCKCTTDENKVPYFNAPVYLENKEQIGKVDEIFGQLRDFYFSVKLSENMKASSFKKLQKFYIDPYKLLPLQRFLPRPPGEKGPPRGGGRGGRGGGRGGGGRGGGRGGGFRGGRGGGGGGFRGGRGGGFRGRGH
telomerase in HT3 cells, sequence (Q9BUR4 whole entry partner): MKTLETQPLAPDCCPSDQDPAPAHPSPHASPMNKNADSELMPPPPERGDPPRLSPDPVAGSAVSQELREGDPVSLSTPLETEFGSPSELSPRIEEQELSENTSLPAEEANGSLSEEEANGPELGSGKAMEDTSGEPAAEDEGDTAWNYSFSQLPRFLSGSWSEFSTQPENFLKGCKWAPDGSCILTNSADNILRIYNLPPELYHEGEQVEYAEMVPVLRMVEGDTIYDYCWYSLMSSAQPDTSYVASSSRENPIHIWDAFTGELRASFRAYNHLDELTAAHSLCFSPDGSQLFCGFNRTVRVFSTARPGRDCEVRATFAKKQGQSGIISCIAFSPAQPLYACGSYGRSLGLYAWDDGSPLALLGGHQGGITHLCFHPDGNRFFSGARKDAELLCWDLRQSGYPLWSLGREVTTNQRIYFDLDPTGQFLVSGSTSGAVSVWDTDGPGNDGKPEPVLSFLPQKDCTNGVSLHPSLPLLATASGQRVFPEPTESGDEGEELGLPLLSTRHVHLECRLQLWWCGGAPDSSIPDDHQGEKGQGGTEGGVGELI
Experimental: HT3 cells were treated for three days with increasing concentrations of PMPG-diisopropyloxy ester ranging from 0.2 μM to 20 μM. Cells (HT3 RPMI+10% PBS) were incubated with compound for 24 hr after which PSTS primer (phosphorothioate-d(AATCCGTCGAGCAGAGTT (SEQ ID NO: 6) containing a 5′ Cy-5 label) (7.5 μM) and fresh compound are added for an additional 24 hr. Cells were lysed and endogenous telomerase inactivated by heating (15 min, 75° C.). Products were amplified by 30 cycles of PCR under TRAP conditions set forth above and quantified. The results of two independent experiments are shown in Table 4.
HT3 cells were treated for three days with increasing concentrations of one or more of the indicated compounds ranging from 0.2 μM to 20 μM. Cells (HT3 RPMI+10% FBS) were incubated with compound for 24 hours, after which PSTS primer (phosphorothioate-d AATCCGTCGAGCAGAGTT (SEQ ID NO: 6) containing a 5′ Cy-5 label) (7.5 μM) and fresh compound were added for an additional 24 hours. Cells were lysed and endogenous telomerase inactivated by heating (15 minutes, 75° C.). Products were amplified by 30 cycles of PCR under TRAP conditions set forth in Kim et al., Science 266:2011, […] (which reference is incorporated herein in its entirety) and quantified.

RPE-64-tv cells = assay: Cytotoxicity in RPE-64-tv cells; format: cell-based
immortal U87 cells = assay: Telomere repeat fragment (TRF) assay using immortal U87 cells; format: cell-based; conditions: concentration not given at the value, approximately 20 population doublings
Experimental: as §1
Telomere repeat fragment assays using immortal U87 cells were performed. 10 μM or 20 μM PMIBeG prodrug (ID#142820) or PMPG prodrug (ID#142715) were added to the cells. Imetelstat (163 L) was used as a reference and a mismatch was used as a negative control. After approximately 20 population doublings, the cells were harvested and telomere lengths determined using TRF. The estimated average lengths were: (1) mismatch control: 5 kb; (2) Imetelstat (163 L): 3.5 kb; (3) PMIBeG prodrug (ID#142820) at 20 μM: 4 kb; (4) PMIBeG prodrug (ID#142820) at 10 μM: 4.1 kb; (5) PMPG prodrug (ID#142715): 3.5 kb.

[2] = Day 10, 30 mg/kg intraperitoneal
[3] = Day 20, 30 mg/kg intraperitoneal
[4] = Day 30, 30 mg/kg intraperitoneal
[5] = Day 40, 30 mg/kg intraperitoneal
[6] = Day 50, 30 mg/kg intraperitoneal
[7] = Day 60, 30 mg/kg intraperitoneal

Row | Molecule | tumor growth compared to vehicle control (Caki-1 cells) | tumor volume (Caki-1 cells; [2]) [mm^3] | tumor volume as a percentage of the tumor volume of control vehicle mice (Caki-1 cells; [2]) [%] | tumor volume (Caki-1 cells; [3]) [mm^3] | tumor volume as a percentage of the tumor volume of control vehicle mice (Caki-1 cells; [3]) [%] | tumor volume (Caki-1 cells; [4]) [mm^3] | tumor volume as a percentage of the tumor volume of control vehicle mice (Caki-1 cells; [4]) [%] | tumor volume (Caki-1 cells; [5]) [mm^3] | tumor volume as a percentage of the tumor volume of control vehicle mice (Caki-1 cells; [5]) [%] | tumor volume (Caki-1 cells; [6]) [mm^3] | tumor volume as a percentage of the tumor volume of control vehicle mice (Caki-1 cells; [6]) [%] | tumor volume (Caki-1 cells; [7]) [mm^3] | tumor volume as a percentage of the tumor volume of control vehicle mice (Caki-1 cells; [7]) [%] | Intercept coefficient of linear transformed tumor growth curve (Caki-1 cells) | Slope coefficient of linear transformed tumor growth curve (Caki-1 cells) | also measured
1 | CC(Cn1cnc2c(=O)[nH]c(N)nc21)OCP(=O)(O)O (single isomer, unassigned) [ID#142693, R-(((Guanine-9-yl)propan-2-oxy)methyl) phosphonic acid] | reduction in tumor growth | 165.1 | 91 | 330.8 | 83 | 581.3 | 78 | 934.3 | 75 | 1407.2 | 73 | 2017.6 | 71 | 0.096 | −0.027 | estimated average telomere length (A549 cells; 10 μM and 5 μM): 4 kb; cytotoxicity ([1]; 200 uM): acutely cytotoxic; cytotoxicity ([1]; therapeutic doses (10 μM and 20 μM)): minimal cytotoxicity; EC50 (telomerase in HT3 cells): 11.7 µM and 2.5 µM and 1.5 µM
2 | C=C(COCP(=O)(O)O)Cn1cnc2c(=O)[nH]c(N)nc21 [ID#142811, (((2-((2-amino-6-oxo-1H-purin-9(6H)-yl)methyl)allyl)oxy)methyl)phosphonic acid] | – | – | – | – | – | – | – | – | – | – | – | – | – | – | – | cytotoxicity compared with PMPG (RPE-64-tv cells): less cytotoxic than PMPG; effect on tissue culture (RPE-64-tv cells; 200 μM): no effect on tissue culture; estimated average telomere length (A549 cells; 20 μM): 5 kb
3 | Imetelstat [reference compound] | reduction in tumor growth | 146.0 | 81 | 293.5 | 74 | 517.0 | 70 | 832.2 | 67 | 1254.8 | 65 | 1800.7 | 63 | −0.074 | −0.032 | estimated average telomere length (immortal U87 cells): 3.5 kb; estimated average telomere length (A549 cells; 2 μM): 4.3 kb
